Assay results reported in patent publication US9593149B2, “Amylin and calcitonin receptor agonist” (Novo Nordisk A/S, priority 2014, dated 2017).
Values after ≈ are worked out from the molar mass of the structure shown. Numbered stars: 1 amine (or outer) side, 2 acyl side, 3 side chain; on linkers, the order of the positions; unused ones are H or OH. Peptide text beside a SMILES is read from it. * marks the point of attachment. C20 diacid = O=C(O)CCCCCCCCCCCCCCCCCCC(=O)*; C18 diacid = O=C(O)CCCCCCCCCCCCCCCCC(=O)*; γGlu = O=C(O)[C@H](CCC(=O)[*:2])N[*:1]; AEEA = NCCOCCOCC(=O)O

Assay: Assay (IV) determination of solubility
Type: physicochemical
Experimental: Assay (IV)—Determination of Solubility
The mimylin peptide was dissolved in water at ˜500 nmol/ml and mixed 1:1 with a series of buffers (100 mM glycylglycine pH 3.0, 100 mM glycylglycine pH 4.0, 100 mM glycylglycine pH 5.0, 100 mM bistrispropane pH 6.0, 100 mM bistrispropane pH 6.5, 100 mM bistrispropane pH 7.0, 100 mM bistrispropane pH 7.5, 100 mM bistrispropane pH 8.0).

CC(C)C[C@H](NC(=O)CNC(=O)[C@H](CO)NC(=O)[C@H](C)NC(=O)CC[C@H](NC(=O)CCCCCCCCCCCCCCCCCCC(=O)O)C(=O)O)C(=O)N[C@@H](CO)C(=O)N[C@H](C(=O)N[C@@H](C)C(=O)N[C@H](C(=O)N[C@@H](CC(C)C)C(=O)NCC(=O)N[C@@H](CCCNC(=N)N)C(=O)N[C@@H](CC(C)C)C(=O)N[C@@H](CO)C(=O)N[C@@H](C)C(=O)N[C@@H](CCC(=O)O)C(=O)N[C@@H](CC(C)C)C(=O)N[C@@H](Cc1cnc[nH]1)C(=O)N[C@@H](CCC(=O)O)C(=O)N[C@@H](CC(C)C)C(=O)N[C@@H](C)C(=O)N[C@H](C(=O)N[C@@H](Cc1ccc(O)cc1)C(=O)N1CCC[C@H]1C(=O)N[C@@H](CCCNC(=N)N)C(=O)N[C@H](C(=O)N[C@@H](CCC(=O)O)C(=O)N[C@H](C(=O)NCC(=O)N[C@@H](CO)C(=O)NCC(=O)N[C@H](C(=O)N[C@@H](Cc1ccc(O)cc1)C(N)=O)[C@@H](C)O)[C@@H](C)O)[C@@H](C)O)[C@@H](C)O)C(C)C)[C@@H](C)O [compound 104, [N-terminal(C20 diacid-gGlu), des1, 4G, 9V, 23Y, 30S, 31G, 32T, 33Y]mimylin] ({C20 diacid-γGlu}-ASGLSTAVLGRLSAELHELATYPRTETGSGTY-NH2)
Solubility (pH 3.0): ≧200 μM | Solubility (pH 4.0): ≧200 μM | solubility at 18 h (pH 5.0): 119 µM (≈ 448 µg/mL) | Solubility (pH 6.0): ≧200 μM | Solubility (pH 6.5): ≧200 μM | Solubility (pH 7.0): ≧200 μM | Solubility (pH 7.5): ≧200 μM | Solubility (pH 8.0): ≧200 μM

CC[C@H](C)[C@H](NC(=O)[C@H](CCC(=O)O)NC(=O)[C@H](C)NC(=O)[C@H](CO)NC(=O)[C@H](CC(C)C)NC(=O)[C@H](CCCNC(=N)N)NC(=O)CNC(=O)[C@H](CC(C)C)NC(=O)[C@H](C)NC(=O)[C@H](C)NC(=O)[C@@H](NC(=O)[C@H](CO)NC(=O)[C@H](CC(C)C)NC(=O)[C@H](CCC(=O)O)NC(=O)[C@H](CO)NC(=O)[C@H](C)NC(=O)[C@H](CCC(=O)O)NC(=O)CCCCCCCCCCCCCCCCC(=O)O)[C@@H](C)O)C(=O)N[C@@H](Cc1cnc[nH]1)C(=O)N[C@@H](CCC(=O)O)C(=O)N[C@@H](CC(C)C)C(=O)N[C@@H](C)C(=O)N[C@H](C(=O)N[C@@H](CC(C)C)C(=O)N1CCC[C@H]1C(=O)N[C@@H](CCCNC(=N)N)C(=O)N[C@H](C(=O)N[C@@H](CCC(=O)O)C(=O)N[C@H](C(=O)NCC(=O)N1CCC[C@H]1C(=O)N[C@@H](CCC(=O)O)C(=O)N[C@@H](CO)C(=O)N1CCC[C@H]1C(N)=O)[C@@H](C)O)[C@@H](C)O)[C@@H](C)O [compound 11, [N-terminal(C18 diacid), 17I]mimylin] ({C18 diacid}-EASELSTAALGRLSAEIHELATLPRTETGPESP-NH2)
Solubility (pH 3.0): ≧200 μM | Solubility (pH 4.0): ≧200 μM | Solubility (pH 5.0): ≧200 μM | Solubility (pH 6.0): ≧200 μM | Solubility (pH 6.5): ≧200 μM | Solubility (pH 7.0): ≧200 μM | Solubility (pH 7.5): ≧200 μM | Solubility (pH 8.0): ≧200 μM

CC(C)C[C@H](NC(=O)[C@H](C)NC(=O)[C@H](C)NC(=O)[C@@H](NC(=O)[C@H](CO)NC(=O)[C@H](CC(C)C)NC(=O)[C@H](CCC(=O)O)NC(=O)[C@H](CO)NC(=O)[C@H](C)NC(=O)COCCOCCNC(=O)COCCOCCNC(=O)COCCOCCNC(=O)COCCOCCNC(=O)COCCOCCNC(=O)CC[C@H](NC(=O)CCCCCCCCCCCCCCCCCCC(=O)O)C(=O)O)[C@@H](C)O)C(=O)NCC(=O)N[C@@H](CCCNC(=N)N)C(=O)N[C@@H](CC(C)C)C(=O)N[C@@H](CO)C(=O)N[C@@H](C)C(=O)N[C@@H](CCC(=O)O)C(=O)N[C@@H](CC(C)C)C(=O)N[C@@H](Cc1cnc[nH]1)C(=O)N[C@@H](CCC(=O)O)C(=O)N[C@@H](CC(C)C)C(=O)N[C@@H](C)C(=O)N[C@H](C(=O)N[C@@H](CC(C)C)C(=O)N1CCC[C@H]1C(=O)N[C@@H](CCCNC(=N)N)C(=O)N[C@H](C(=O)N[C@@H](CCC(=O)O)C(=O)N[C@H](C(=O)NCC(=O)N[C@@H](CO)C(=O)NCC(=O)N[C@@H](CO)C(=O)N1CCC[C@H]1C(N)=O)[C@@H](C)O)[C@@H](C)O)[C@@H](C)O [compound 45, [N-terminal(C20 diacid-gGlu-5xOEG), des1, 30S, 31G]mimylin] ({C20 diacid-γGlu-AEEA-AEEA-AEEA-AEEA-AEEA}-ASELSTAALGRLSAELHELATLPRTETGSGSP-NH2)
Solubility (pH 3.0): ≧200 μM | Solubility (pH 4.0): ≧200 μM | Solubility (pH 5.0): ≧200 μM | Solubility (pH 6.0): ≧200 μM | Solubility (pH 6.5): ≧200 μM | Solubility (pH 7.0): ≧200 μM | Solubility (pH 7.5): ≧200 μM | Solubility (pH 8.0): ≧200 μM

CC[C@H](C)[C@H](NC(=O)[C@H](CCC(=O)O)NC(=O)[C@H](Cc1cnc[nH]1)NC(=O)[C@H](CC(C)C)NC(=O)[C@H](CCC(=O)O)NC(=O)[C@H](C)NC(=O)[C@H](CO)NC(=O)[C@H](CC(C)C)NC(=O)[C@H](CCCNC(=N)N)NC(=O)CNC(=O)[C@H](CC(C)C)NC(=O)[C@H](C)NC(=O)[C@H](C)NC(=O)[C@@H](NC(=O)[C@H](CO)NC(=O)[C@H](CC(C)C)NC(=O)[C@H](CCC(=O)O)NC(=O)[C@H](CO)NC(=O)[C@H](C)NC(=O)[C@H](CCC(=O)O)NC(=O)CCCCCCCCCCCCCCCCC(=O)O)[C@@H](C)O)C(=O)N[C@@H](C)C(=O)N[C@H](C(=O)N[C@@H](CC(C)C)C(=O)N1CCC[C@H]1C(=O)N[C@@H](CCCNC(=N)N)C(=O)N[C@H](C(=O)N[C@@H](CCC(=O)O)C(=O)N[C@H](C(=O)NCC(=O)N1CCC[C@H]1C(=O)N[C@@H](CCC(=O)O)C(=O)N[C@@H](CO)C(=O)N1CCC[C@H]1C(N)=O)[C@@H](C)O)[C@@H](C)O)[C@@H](C)O [compound 12, [N-terminal(C18 diacid), 20I]mimylin] ({C18 diacid}-EASELSTAALGRLSAELHEIATLPRTETGPESP-NH2)
Solubility (pH 3.0): ≧200 μM | Solubility (pH 4.0): ≧200 μM | Solubility (pH 5.0): ≧200 μM | Solubility (pH 6.0): ≧200 μM | Solubility (pH 6.5): ≧200 μM | Solubility (pH 7.0): ≧200 μM | Solubility (pH 7.5): ≧200 μM | Solubility (pH 8.0): ≧200 μM

CC(C)C[C@H](NC(=O)[C@H](CCC(=O)O)NC(=O)[C@H](Cc1cnc[nH]1)NC(=O)[C@H](CC(C)C)NC(=O)[C@H](CCC(=O)O)NC(=O)[C@H](C)NC(=O)[C@H](CO)NC(=O)[C@H](CC(C)C)NC(=O)[C@H](CCCNC(=N)N)NC(=O)CNC(=O)[C@H](CC(C)C)NC(=O)[C@@H](NC(=O)[C@H](C)NC(=O)[C@@H](NC(=O)[C@H](CO)NC(=O)[C@H](CC(C)C)NC(=O)[C@H](CCC(=O)O)NC(=O)[C@H](CO)NC(=O)[C@@H]1CCCN1C(=O)[C@H](CCC(=O)O)NC(=O)CCCCCCCCCCCCCCCCC(=O)O)[C@@H](C)O)C(C)C)C(=O)N[C@@H](C)C(=O)N[C@H](C(=O)N[C@@H](CC(C)C)C(=O)N1CCC[C@H]1C(=O)N[C@@H](CCCNC(=N)N)C(=O)N[C@H](C(=O)N[C@@H](CCC(=O)O)C(=O)N[C@H](C(=O)NCC(=O)N1CCC[C@H]1C(=O)N[C@@H](CCC(=O)O)C(=O)N[C@@H](CO)C(=O)N1CCC[C@H]1C(N)=O)[C@@H](C)O)[C@@H](C)O)[C@@H](C)O [compound 28, [N-terminal(C18 diacid), 2P, 9V]mimylin] ({C18 diacid}-EPSELSTAVLGRLSAELHELATLPRTETGPESP-NH2)
Solubility (pH 3.0): ≧200 μM | Solubility (pH 4.0): ≧200 μM | Solubility (pH 5.0): ≧200 μM | Solubility (pH 6.0): ≧200 μM | Solubility (pH 6.5): ≧200 μM | Solubility (pH 7.0): ≧200 μM | Solubility (pH 7.5): ≧200 μM | Solubility (pH 8.0): ≧200 μM

CC(C)C[C@H](NC(=O)[C@H](C)NC(=O)[C@H](C)NC(=O)[C@@H](NC(=O)[C@H](CO)NC(=O)[C@H](CC(C)C)NC(=O)[C@H](CCC(=O)O)NC(=O)[C@H](CO)NC(=O)[C@H](C)NC(=O)[C@H](CCC(=O)O)NC(=O)CC[C@H](NC(=O)CCCCCCCCCCCCCCCCCCC(=O)O)C(=O)O)[C@@H](C)O)C(=O)NCC(=O)N[C@@H](CCCNC(=N)N)C(=O)N[C@@H](CC(C)C)C(=O)N[C@@H](CO)C(=O)N[C@@H](C)C(=O)N[C@@H](CCC(=O)O)C(=O)N[C@@H](CC(C)C)C(=O)N[C@@H](Cc1cnc[nH]1)C(=O)N[C@@H](CCC(=O)O)C(=O)N[C@@H](CC(C)C)C(=O)N[C@@H](C)C(=O)N[C@H](C(=O)N[C@@H](Cc1ccc(O)cc1)C(=O)N1CCC[C@H]1C(=O)N[C@@H](CCCNC(=N)N)C(=O)N[C@H](C(=O)N[C@@H](CCC(=O)O)C(=O)N[C@H](C(=O)NCC(=O)N[C@@H](CO)C(=O)NCC(=O)N[C@@H](CO)C(=O)N1CCC[C@H]1C(N)=O)[C@@H](C)O)[C@@H](C)O)[C@@H](C)O [compound 34, [N-terminal(C20 diacid-gGlu), 23Y, 30S, 31G]mimylin] ({C20 diacid-γGlu}-EASELSTAALGRLSAELHELATYPRTETGSGSP-NH2)
Solubility (pH 3.0): ≧200 μM | Solubility (pH 4.0): ≧200 μM | Solubility (pH 5.0): ≧200 μM | Solubility (pH 6.0): ≧200 μM | Solubility (pH 6.5): ≧200 μM | Solubility (pH 7.0): ≧200 μM | Solubility (pH 7.5): ≧200 μM | Solubility (pH 8.0): ≧200 μM

CC(C)C[C@H](NC(=O)[C@H](C)NC(=O)[C@H](C)NC(=O)[C@@H](NC(=O)[C@H](CO)NC(=O)[C@H](CC(C)C)NC(=O)[C@H](CCC(=O)O)NC(=O)[C@H](CO)NC(=O)[C@H](C)NC(=O)CC[C@H](NC(=O)CCCCCCCCCCCCCCCCCCC(=O)O)C(=O)O)[C@@H](C)O)C(=O)NCC(=O)N[C@@H](CCCNC(=N)N)C(=O)N[C@@H](CC(C)C)C(=O)N[C@@H](CO)C(=O)N[C@@H](C)C(=O)N[C@@H](CCC(=O)O)C(=O)N[C@@H](CC(C)C)C(=O)N[C@@H](Cc1cnc[nH]1)C(=O)N[C@@H](CCC(=O)O)C(=O)N[C@@H](CC(C)C)C(=O)N[C@@H](C)C(=O)N[C@H](C(=O)N[C@@H](CC(C)C)C(=O)N1CCC[C@H]1C(=O)N[C@@H](CCCNC(=N)N)C(=O)N[C@H](C(=O)N[C@@H](CCC(=O)O)C(=O)N[C@H](C(=O)NCC(=O)N[C@@H](CO)C(=O)NCC(=O)N[C@@H](CO)C(=O)N[C@@H](C)C(N)=O)[C@@H](C)O)[C@@H](C)O)[C@@H](C)O [compound 65, [N-terminal(C20 diacid-gGlu), des1, 30S, 31G, 33A]mimylin] ({C20 diacid-γGlu}-ASELSTAALGRLSAELHELATLPRTETGSGSA-NH2)
Solubility (pH 3.0): ≧200 μM | Solubility (pH 4.0): ≧200 μM | Solubility (pH 5.0): ≧200 μM | Solubility (pH 6.0): ≧200 μM | Solubility (pH 6.5): ≧200 μM | Solubility (pH 7.0): ≧200 μM | Solubility (pH 7.5): ≧200 μM | Solubility (pH 8.0): ≧200 μM
